Experimental data: ChEMBL document CHEMBL1156803, “Novel 3-arylideneindolin-2-ones as inhibitors of NAD+ -dependent histone deacetylases (sirtuins)” (J Med Chem, 2010)
Calls of active or inactive are those of the source. The rule behind the calls is not given here.

How the values were obtained:
[1] = target: T1, NAD-dependent protein deacetylase sirtuin-1 (Homo sapiens) (UniProt Q96EB6); experiment: Inhibition of human recombinant N-terminally GST-tagged SIRT1 at 50 uM after 4 hrs in presence of NAD+ by fluorescent deacetylase assay
T1 sequence (whole entry): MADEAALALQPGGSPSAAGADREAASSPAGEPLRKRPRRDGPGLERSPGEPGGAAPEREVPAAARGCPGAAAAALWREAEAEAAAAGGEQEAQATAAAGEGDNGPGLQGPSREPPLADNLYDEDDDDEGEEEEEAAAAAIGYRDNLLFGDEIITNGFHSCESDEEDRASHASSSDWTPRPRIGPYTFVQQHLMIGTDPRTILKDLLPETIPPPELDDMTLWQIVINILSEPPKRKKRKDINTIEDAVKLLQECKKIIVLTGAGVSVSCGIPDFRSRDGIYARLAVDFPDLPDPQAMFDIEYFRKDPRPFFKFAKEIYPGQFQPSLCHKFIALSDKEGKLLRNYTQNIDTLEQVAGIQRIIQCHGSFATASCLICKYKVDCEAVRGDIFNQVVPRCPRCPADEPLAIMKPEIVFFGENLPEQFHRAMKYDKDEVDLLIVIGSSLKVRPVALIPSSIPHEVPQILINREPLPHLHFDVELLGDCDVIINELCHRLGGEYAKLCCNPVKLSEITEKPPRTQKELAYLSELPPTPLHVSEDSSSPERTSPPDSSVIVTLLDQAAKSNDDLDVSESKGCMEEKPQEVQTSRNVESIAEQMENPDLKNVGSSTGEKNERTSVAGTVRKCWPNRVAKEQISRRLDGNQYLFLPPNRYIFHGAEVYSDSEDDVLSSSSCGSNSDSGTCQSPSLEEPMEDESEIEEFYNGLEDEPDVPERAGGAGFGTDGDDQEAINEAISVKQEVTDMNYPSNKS

[2] = target: T2, NAD-dependent protein deacetylase sirtuin-3, mitochondrial (Homo sapiens) (UniProt Q9NTG7); experiment: Inhibition of human recombinant N-terminally 6X-His-tagged SIRT3 at 50 uM after 4 hrs in presence of NAD+ by fluorescent deacetylase assay
T2 sequence (whole entry): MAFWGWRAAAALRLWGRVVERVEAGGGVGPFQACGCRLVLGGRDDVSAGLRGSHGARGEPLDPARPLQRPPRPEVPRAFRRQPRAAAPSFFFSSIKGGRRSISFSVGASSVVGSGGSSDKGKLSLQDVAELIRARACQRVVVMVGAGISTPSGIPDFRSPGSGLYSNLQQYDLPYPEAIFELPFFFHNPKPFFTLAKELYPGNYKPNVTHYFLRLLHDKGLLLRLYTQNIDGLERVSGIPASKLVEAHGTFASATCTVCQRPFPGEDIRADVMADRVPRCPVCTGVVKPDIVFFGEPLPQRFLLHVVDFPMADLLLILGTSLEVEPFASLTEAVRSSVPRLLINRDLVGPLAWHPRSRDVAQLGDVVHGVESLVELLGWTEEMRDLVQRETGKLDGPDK

[3] = target: T3, NAD-dependent protein deacetylase sirtuin-2 (Homo sapiens) (UniProt Q8IXJ6); experiment: Inhibition of human recombinant N-terminally 6X-His-tagged SIRT2 at 50 uM after 4 hrs in presence of NAD+ by fluorescent deacetylase assay
T3 sequence (whole entry): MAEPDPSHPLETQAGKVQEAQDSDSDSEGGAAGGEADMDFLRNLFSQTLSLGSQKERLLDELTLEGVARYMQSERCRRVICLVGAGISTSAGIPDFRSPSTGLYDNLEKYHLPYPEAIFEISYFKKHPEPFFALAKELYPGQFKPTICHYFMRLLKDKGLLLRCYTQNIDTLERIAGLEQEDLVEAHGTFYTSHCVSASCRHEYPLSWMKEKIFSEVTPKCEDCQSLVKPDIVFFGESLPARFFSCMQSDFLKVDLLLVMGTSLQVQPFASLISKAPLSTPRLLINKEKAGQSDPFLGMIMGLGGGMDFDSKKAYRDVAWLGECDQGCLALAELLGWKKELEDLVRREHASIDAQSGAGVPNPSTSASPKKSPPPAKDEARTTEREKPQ

[4] = target: T3, NAD-dependent protein deacetylase sirtuin-2 (Homo sapiens); experiment: Inhibition of SIRT2 in human HepG2 cells assessed as alpha-tubulin hyperacetylation after 6 hrs by ELISA; format: cell-based
HepG2 = experiment: Toxicity in human HepG2 cells after 6 hrs; format: cell-based; details: hepg2, 6 h
[5] = target: T3, NAD-dependent protein deacetylase sirtuin-2 (Homo sapiens); experiment: Inhibition of SIRT2 in human MCF7 cells assessed as tubulin hyperacetylation at 0.1 uM after 16 hrs by Western blot; format: cell-based
[6] = target: T4, NAD-dependent protein deacetylase sirtuin-2 (Homo sapiens, UniProt Q8IXJ6); experiment: Inhibition of human recombinant N-terminally 6X-His-tagged SIRT2 after 4 hrs in presence of NAD+ by fluorescent deacetylase assay
T4 sequence (Q8IXJ6 whole entry): T3 sequence (whole entry)

[7] = target: T5, NAD-dependent protein deacetylase sirtuin-1 (Homo sapiens, UniProt Q96EB6); experiment: Inhibition of human recombinant N-terminally GST-tagged SIRT1 after 4 hrs in presence of NAD+ by fluorescent deacetylase assay
T5 sequence (Q96EB6 whole entry): T1 sequence (whole entry)

[8] = target: T3, NAD-dependent protein deacetylase sirtuin-2 (Homo sapiens); experiment: Inhibition of SIRT2 in human MCF7 cells assessed as tubulin hyperacetylation at 10 uM after 16 hrs by Western blot; format: cell-based

| SMILES | inhibition [1] [%] | inhibition [2] [%] | inhibition [3] [%] | further results |
| --- | --- | --- | --- | --- |
| COc1cc(/C=C2\C(=O)Nc3c2ccc(Cl)c3Cl)cc(OC)c1OC | < 10 | < 10 | < 10 |  |
| O=C1Nc2c(ccc(Cl)c2Cl)/C1=C/c1ccc(F)cc1 | 24.4 | < 10 |  | Activity [4]: inactive; Activity (HepG2): Non-toxic |
| CC(/C=C/C(=O)NO)=C\[C@@H](C)C(=O)c1ccc(N(C)C)cc1 |  |  |  | Activity [5]: Active |
| Cc1cc(C)c(/C=C2\C(=O)Nc3c2ccc(Cl)c3Cl)[nH]1 | 19.9 | < 10 |  |  |
| O=C1Nc2c(ccc(Cl)c2Cl)/C1=C\c1ccccn1 | 22.7 | < 10 | 20.6 |  |
| O=C1Nc2c(ccc(Cl)c2Cl)/C1=C/c1ccc([N+](=O)[O-])cc1 | 30.2 | < 10 |  | IC50 [6]: 10.4 µM |
| O=C1Nc2c(ccc(Cl)c2Cl)/C1=C/c1ccc(O)cc1 | < 10 | 13.5 | 34.7 |  |
| Cn1c2c(Cl)c(Cl)ccc2c2cc[nH]c(=O)c21 [BAUERINE C] | < 10 | < 10 |  |  |
| O=C1Nc2c(ccc(Cl)c2Cl)/C1=C\c1ccncc1 | 19.6 | < 10 | 16.5 |  |
| O=C1Nc2c(ccc(Cl)c2Cl)/C1=C/c1cc(Br)c(O)c(Br)c1 |  |  |  | Activity [4]: Active; Activity (HepG2): Non-toxic; IC50 [6]: 28.4 µM; IC50 [7]: 40.6 µM |
| Cn1cc(C2=C(c3cn(CCCSC(=N)N)c4ccccc34)C(=O)NC2=O)c2ccccc21 |  |  |  | Activity [8]: Active |

Continued, in another order:

| inhibition [1] [%] | inhibition [2] [%] | inhibition [3] [%] | SMILES | further results |
| --- | --- | --- | --- | --- |
| 45.4 | < 10 | 18.3 | O=C1Nc2c(ccc(Cl)c2Cl)/C1=C/c1ccc(C(F)(F)F)cc1 |  |
| 20.7 | < 10 | < 10 | CN(C)c1ccc(/C=C2\C(=O)Nc3c2ccc(Cl)c3Cl)cc1 |  |
| 19.8 | < 10 |  | O=C1Nc2c(ccc(Cl)c2Cl)/C1=C/c1cc(C(F)(F)F)cc(C(F)(F)F)c1 |  |
| < 10 | 26.4 |  | CCN(CC)CCNC(=O)c1c(C)[nH]c(/C=C2\C(=O)Nc3ccc(F)cc32)c1C [SUNITINIB] | IC50 [6]: 123 µM |
